Test results: PubChem BioAssay AID504645 (Southern Research Specialized Biocontainment Screening …, 2011)
The source made the active and inactive calls. The rule behind the calls is not given here.

experiment: M tuberculosis H37Rv growth inhibition in absence of glycerol, confirmatory, IC90 (AID 504645);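 note: bacteria grown one week before the viability dye was added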; conditions: M. tuberculosis H37Rv growth inhibition, glycerol-free medium; at 25 µM (top of the series)

Structure (SMILES)	inhibition
O=C(NCC1COc2ccccc2O1)C1CCC(CNc2c(N3CCCCC3)c(=O)c2=O)CC1 (stereo unspecified)	4.5% (inactive)
Nc1cc(=O)[nH]c(SCC(=O)Nc2ccccc2-c2ccccc2)n1	3.67% (inactive)
Cc1ccc(NC(=O)CSc2nc(N)c(-c3ccccc3)c(=O)[nH]2)cc1Cl	1.17% (inactive)
Cc1[nH]c2ccccc2c1C(=O)COC(=O)c1ccc([N+](=O)[O-])s1	8.85% (inactive)
CCSc1nc2ccccc2c(=O)[nH]1	4.69% (inactive)
Cc1ccc(NC(=O)CSc2nc(N)cc(=O)[nH]2)cc1Cl	10.7% (inactive)
COC(=O)c1ccc(CNc2c(N3CCCC3)c(=O)c2=O)cc1	-5.38% (inactive)
CCOC(=O)N1CCC(Nc2c(N3CCN(c4cccc(C(F)(F)F)c4)CC3)c(=O)c2=O)CC1	3.78% (inactive)
CCOC(=O)C(CC)Sc1ncnc2c1nnn2-c1ccc(F)cc1 (stereo unspecified)	14.7% (inactive)
Oc1ccccc1/C=N/Nc1ccnc(SCc2ccccc2)n1	2.52% (inactive)
Cc1cc(C)cc(NC(=O)CSc2nc3c(c(=O)[nH]2)CN(Cc2ccc(F)cc2)CC3)c1	-0.57% (inactive)
CCOC(=O)CSc1nc(C)c(C)c(=O)[nH]1	-1.83% (inactive)
O=C(CSc1ccccn1)NC1CCCCC1	5.28% (inactive)
Cc1nc(SCC(N)=O)[nH]c(=O)c1C	2.85% (inactive)
Cc1nc(SCC(=O)N(C)c2ccccc2)[nH]c(=O)c1C	-1.39% (inactive)
CCSc1nc(C)c(C)c(=O)[nH]1	3.06% (inactive)
O=C(CSc1ncccn1)NC1CCCCC1	2.15% (inactive)
CCc1c(O)nc(SCC(=O)Nc2ccc(OC)cc2)n(C2CCCCC2)c1=O	2.43% (inactive)
CCOc1ccc(NC(=O)CSc2nc(N)c(-c3ccccc3)c(=O)[nH]2)cc1	2.14% (inactive)
Nc1cc(=O)[nH]c(SCC(=O)Nc2ccc(Oc3ccccc3)cc2)n1	7.34% (inactive)
CCOc1ccc(NC(=O)c2ccc(CNc3c(N4CCCC4)c(=O)c3=O)cc2)cc1	7.47% (inactive)
